In assay [1] the test system is CD71 (transferrin receptor 1) in HCC cell lines. The experiment in a line: Immunoblotting, CD71 (transferrin receptor 1) protein level. Format: cell-based, human. The conditions noted are these: six-day exposure to 10 μM or 30 μM; all four HCC cell lines. The procedure: (§1) The activity of gallium maltolate and gallium nitrate was studied in vitro on several human hepatocellular carcinoma (HCC) cell lines (Hep3B, HepG2, SNU475, and Hep 40). Further information on these experiments is reported by Chua et al., Anticancer Research 26:1739-1744, 2006.
(§2) Immunoblotting: Cells were exposed to 10 μM or 30 μM gallium maltolate for six days; whole cell lysates were then prepared and total protein quantified using the Bradford Assay. Approximately 20 μg of protein was electrophoresed on pre-cast gels and transferred onto PVDF membranes. Non-specific sites were blocked by incubation with 5% non-fat milk in TBS-1% Tween solution for 1 hr at room temperature. Proteins were then detected with specific antibodies against CD71 (transferrin receptor 1) or PARP at recommended dilutions, followed by appropriate HRP-conjugated secondary antibodies.
Background: Immunoblotting shows a protein as a band on a membrane.

The subject of assay [2] is poly(ADP-ribose) polymerase (PARP) in HCC cell lines. Kind of assay: Immunoblotting, PARP assay for apoptosis. The note with it: HCC cell lines Hep 3B, Hep 40, and SNU475; 10 μM or 30 μM, six days exposure. Format: cell-based, human. How it is done: as §1, §2
For assay [3], the system named is human hepatocellular carcinoma (HCC) cell lines (Hep3B, HepG2, SNU475, and Hep 40). Kind of assay: Assessment of apoptotic cell morphology (hematoxylin and eosin, light microscope). The conditions noted are these: 30 μM, six days exposure; all four HCC cell lines. Format: cell-based. How it is done:
as §1
Assessment of apoptotic cell morphology: After six days exposure to gallium maltolate at either 10 μM or 30 μM, cells were fixed using absolute methanol at −20° C. for 10 min, then stained with hematoxylin and eosin. Cell morphology was then observed with a light microscope.

As for `Cc1occc(=O)c1[O-].Cc1occc(=O)c1[O-].Cc1occc(=O)c1[O-].[Ga+3]` [gallium maltolate, tris(3-hydroxy-2-methyl-4H-pyran-4-onato)gallium], in assay [1], the “protein level of CD71 (transferrin receptor 1)” value is “dose-dependent increase”. The “poly(ADP-ribose) polymerase (PARP) assay for apoptosis” value in assay [2] was “positive”. Besides, the “cellular morphology (apoptosis)” value in assay [3] was “indicative of apoptosis”.
